Data as given in ChEMBL document CHEMBL5727404, “Toll-like receptor 7 (TLR7) agonists having a heterobiaryl moiety, conjugates thereof, and methods and uses therefor” (2019).
pEC50: −log10 of the molar value.

Molecular target: T1, Toll-like receptor 7 (Homo sapiens, UniProt Q9NYK1)
T1 sequence (Q9NYK1 whole entry): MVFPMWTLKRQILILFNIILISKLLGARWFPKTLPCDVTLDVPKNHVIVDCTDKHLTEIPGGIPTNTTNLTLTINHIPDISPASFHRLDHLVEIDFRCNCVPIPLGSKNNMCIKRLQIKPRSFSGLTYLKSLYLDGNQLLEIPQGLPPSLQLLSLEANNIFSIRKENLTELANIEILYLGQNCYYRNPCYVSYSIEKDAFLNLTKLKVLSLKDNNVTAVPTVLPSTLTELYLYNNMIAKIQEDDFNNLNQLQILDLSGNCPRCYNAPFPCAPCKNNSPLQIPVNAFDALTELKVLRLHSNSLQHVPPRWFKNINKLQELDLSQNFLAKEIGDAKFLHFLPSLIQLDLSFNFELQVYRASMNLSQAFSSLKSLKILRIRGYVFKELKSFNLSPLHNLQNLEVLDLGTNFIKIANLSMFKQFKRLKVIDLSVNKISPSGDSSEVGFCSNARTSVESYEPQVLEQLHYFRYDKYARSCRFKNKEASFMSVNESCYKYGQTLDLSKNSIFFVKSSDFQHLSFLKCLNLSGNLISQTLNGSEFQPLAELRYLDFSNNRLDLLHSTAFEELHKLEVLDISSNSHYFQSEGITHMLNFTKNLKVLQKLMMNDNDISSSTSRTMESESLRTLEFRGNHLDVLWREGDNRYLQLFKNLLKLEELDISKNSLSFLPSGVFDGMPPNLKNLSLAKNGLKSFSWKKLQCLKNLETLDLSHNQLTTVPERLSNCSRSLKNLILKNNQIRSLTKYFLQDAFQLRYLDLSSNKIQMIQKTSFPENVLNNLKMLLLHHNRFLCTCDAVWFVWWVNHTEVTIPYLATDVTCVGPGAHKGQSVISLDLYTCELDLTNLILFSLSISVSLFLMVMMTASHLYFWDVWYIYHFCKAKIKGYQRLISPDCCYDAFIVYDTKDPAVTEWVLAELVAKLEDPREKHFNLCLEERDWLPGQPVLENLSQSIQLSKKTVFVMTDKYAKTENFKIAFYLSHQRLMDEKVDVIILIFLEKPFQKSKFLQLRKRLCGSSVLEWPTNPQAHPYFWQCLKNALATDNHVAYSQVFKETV
Test: HEK-Blue™ TLR7 cells were added to each well of a 384-well tissue-culture plate (15,000 cells per well) and incubated 16-18 h at 37° C., 5% CO2. Compounds (100 nl) were dispensed into wells containing the HEK-Blue™ TLR cells and the treated cells were incubated at 37° C., 5% CO2. After 18 h treatment ten microliters of freshly-prepared Quanti-Blue reagent (Invivogen) was added to each well, incubated for 30 min (37° C., 5% CO2) and SEAP levels measured using an Envision plate reader (OD=620 nm).

| pEC50 | Compound |
| --- | --- |
| 7.28 | CCCCOc1nc(N)c2nc(O)n(Cc3ccc(-c4csc(CN)c4)nc3)c2n1 |
| 7.23 | CCCCOc1nc(N)c2nc(O)n(Cc3ccc(-c4csc(CN)c4)cc3)c2n1 |
